Earlier results on 1 molecule are cited in patent US20140212515A1, “COMPOSITION AND METHODS FOR OPTIMIZING HEALTH OF CANCER PATIENTS BY THE ADMINISTRATION OF SODIUM SELENITE AND VITAMIN K3” (priority 2013, published 2014).

The subject of this series is rat pancreatic cancer cells.

For the molecule `CC1=CC(=O)c2ccccc2C1=O` [Menadione, 2-Methyl-1,4-Napthoquinone], the “proliferation of rat pancreatic cancer cells” value is “inhibit the proliferation”.
